In ChEMBL document CHEMBL5143628, “Enteroviral replication inhibition by N-Alkyl triazolopyrimidinone derivatives through a non-capsid binding mode” (Bioorg Med Chem Lett, 2022):
The source made the active and inactive calls. No cut-off for these calls is given here.

Columns and labels:
rhinovirus B14 [1] = experiment: Antiviral activity against Human rhinovirus B14 infected in human H1-HeLa cells assessed as reduction in virus induced cytopathic effect incubated for 3 days by MTT assay; type: functional, organism-based
rhinovirus A21 = experiment: Antiviral activity against Human rhinovirus A21 infected in human H1-HeLa cells assessed as reduction in virus induced cytopathic effect incubated for 3 days by MTT assay; type: functional, organism-based
[2] = Antiviral activity against Human rhinovirus A71 infected in human H1-HeLa cells assessed as reduction in virus induced cytopathic effect incubated for 3 days by MTT assay; type: functional, cell-based; details: Rhinovirus A, H1-HeLa, 72 h
[3] = Cytotoxicity against human H1-HeLa cells assessed as reduction in cell viability by MTT assay; type: toxicity, cell-based; details: H1-HeLa cells
[4] = Selectivity index, ratio of CC50 for cytotoxicity against human H1-HeLa cells to EC50 for antiviral activity against Human rhinovirus B14 infected in human H1-HeLa cells; type: toxicity, cell-based; details: for selectivity ratio: H1-HeLa cells, read-out: Ratio CC50/EC50
[5] = Selectivity index, ratio of CC50 for cytotoxicity against human H1-HeLa cells to EC50 for antiviral activity against Human rhinovirus A21 infected in human H1-HeLa cells; type: toxicity, cell-based; details: for selectivity ratio: H1-HeLa cells, read-out: Ratio CC50/EC50
[6] = Selectivity index, ratio of CC50 for cytotoxicity against human H1-HeLa cells to EC50 for antiviral activity against Human rhinovirus A71 infected in human H1-HeLa cells; type: toxicity, cell-based; details: H1-HeLa cells, read-out: Ratio CC50/EC50
rhinovirus A1B = experiment: Antiviral activity against Rhinovirus A1B infected in human H1-HeLa cells assessed as reduction in virus induced cytopathic effect incubated for 3 days by MTT assay; type: functional, organism-based; details: Rhinovirus A, 72 h
rhinovirus A2 = experiment: Antiviral activity against Human rhinovirus 2 infected in human H1-HeLa cells assessed as reduction in virus induced cytopathic effect incubated for 3 days by MTT assay; type: functional, organism-based; details: Rhinovirus A, 72 h
rhinovirus A16 = experiment: Antiviral activity against Human rhinovirus 16 infected in human H1-HeLa cells assessed as reduction in virus induced cytopathic effect incubated for 3 days by MTT assay; type: functional, organism-based; details: Rhinovirus A, 72 h
Rhinovirus A [7] = experiment: Antiviral activity against Rhinovirus A33 infected in human H1-HeLa cells assessed as reduction in virus induced cytopathic effect incubated for 3 days by MTT assay; type: functional, cell-based; details: Rhinovirus A, 33, H1-HeLa, 72 h
Rhinovirus A [8] = experiment: Antiviral activity against Rhinovirus A98 infected in human H1-HeLa cells assessed as reduction in virus induced cytopathic effect incubated for 3 days by MTT assay; type: functional, cell-based; details: Rhinovirus A, 98, H1-HeLa, 72 h
Rhinovirus B [9] = experiment: Antiviral activity against Rhinovirus B27 infected in human H1-HeLa cells assessed as reduction in virus induced cytopathic effect incubated for 3 days by MTT assay; type: functional, organism-based; details: Rhinovirus B, 27, H1-HeLa, 72 h
[10] = Antiviral activity against Human rhinovirus 42 infected in human H1-HeLa cells assessed as reduction in virus induced cytopathic effect incubated for 3 days by MTT assay; type: functional, cell-based; details: Rhinovirus B, 72 h
rhinovirus B86 = experiment: Antiviral activity against Human rhinovirus 86 infected in human H1-HeLa cells assessed as reduction in virus induced cytopathic effect incubated for 3 days by MTT assay; type: functional, organism-based; details: Rhinovirus B, 72 h
Rhinovirus B [11] = experiment: Antiviral activity against Rhinovirus B91 infected in human H1-HeLa cells assessed as reduction in virus induced cytopathic effect incubated for 3 days by MTT assay; type: functional, organism-based; details: Rhinovirus B, 91, H1-HeLa, 72 h
Coxsackievirus B1 = experiment: Antiviral activity against Human coxsackievirus B1 infected in human H1-HeLa cells assessed as reduction in virus induced cytopathic effect incubated for 2 days by MTT assay; type: functional, organism-based; details: Enterovirus B, 48 h
Poliovirus 3 = experiment: Antiviral activity against Human poliovirus 3 infected in human H1-HeLa cells assessed as reduction in virus induced cytopathic effect incubated for 2 days by MTT assay; type: functional, organism-based; details: Enterovirus C, 48 h
[12] = Inhibition of Enterovirus A71 replicon RNA transfected in human H1-HeLa cells assessed as reduction in replication measured after 8 hrs by One-Glo luciferase assay; type: cell-based; details: Enterovirus A
[13] = Cytotoxicity against human H1-HeLa cells transfected with Enterovirus A71 replicon RNAs assessed as reduction in cell viability by CellTiter-Glo luminescent cell viability assay; type: toxicity, cell-based
CYP1A2 = biological target: T1, CYP1A2 (Homo sapiens, UniProt P05177); experiment: Inhibition of human CYP1A2 at 10 uM incubated for 20 mins in presence of NADPH regenerating system by luminescence assay relative to control; type: ADME
T1 sequence (P05177 whole entry): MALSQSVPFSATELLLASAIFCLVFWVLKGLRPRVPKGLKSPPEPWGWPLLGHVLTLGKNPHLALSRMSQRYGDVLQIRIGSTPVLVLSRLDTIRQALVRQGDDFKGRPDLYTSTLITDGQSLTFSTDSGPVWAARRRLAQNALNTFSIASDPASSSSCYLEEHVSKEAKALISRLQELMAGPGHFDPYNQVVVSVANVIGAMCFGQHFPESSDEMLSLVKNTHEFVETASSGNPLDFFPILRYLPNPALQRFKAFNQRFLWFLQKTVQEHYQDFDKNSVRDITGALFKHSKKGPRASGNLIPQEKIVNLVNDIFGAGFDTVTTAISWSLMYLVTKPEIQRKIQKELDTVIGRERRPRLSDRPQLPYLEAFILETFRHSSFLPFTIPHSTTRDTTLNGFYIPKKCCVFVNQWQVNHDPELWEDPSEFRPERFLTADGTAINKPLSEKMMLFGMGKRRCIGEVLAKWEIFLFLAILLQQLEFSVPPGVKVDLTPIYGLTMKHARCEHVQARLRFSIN

CYP2C19 = CYP2C19 (Homo sapiens, UniProt P33261); experiment: Inhibition of human CYP2C19 at 10 uM incubated for 20 mins in presence of NADPH regenerating system by luminescence assay relative to control; type: ADME
CYP3A4 = CYP3A4 (Homo sapiens, UniProt P08684); experiment: Inhibition of human CYP3A4 at 10 uM incubated for 20 mins in presence of NADPH regenerating system by luminescence assay relative to control; type: ADME
CYP2D6 = CYP2D6 (Homo sapiens, UniProt P10635); experiment: Inhibition of human CYP2D6 at 10 uM incubated for 20 mins in presence of NADPH regenerating system by luminescence assay relative to control; type: ADME
CYP2C9 = CYP2C9 (Homo sapiens, UniProt P11712); experiment: Inhibition of human CYP2C9 at 10 uM incubated for 20 mins in presence of NADPH regenerating system by luminescence assay relative to control; type: ADME
[14] = Tmax in Sprague-Dawley rat at 10 mg/kg, po by LC/MS/MS analysis; type: ADME, organism-based; details: in vivo
[15] = Cmax in Sprague-Dawley rat at 10 mg/kg, po by LC/MS/MS analysis; type: ADME, organism-based; design: dose 10 mg/kg, route po; details: in vivo
[16] = Half life in Sprague-Dawley rat at 10 mg/kg, po by LC/MS/MS analysis; type: ADME, organism-based; details: in vivo
[17] = AUClast in Sprague-Dawley rat at 10 mg/kg, po by LC/MS/MS analysis; type: ADME, organism-based; design: time 0 - last, dose 10 mg/kg, route po; details: in vivo
[18] = AUCinfinity in Sprague-Dawley rat at 10 mg/kg, po by LC/MS/MS analysis; type: ADME, organism-based; design: time infinity, dose 10 mg/kg, route po; details: in vivo
[19] = Metabolic stability in pooled human liver microsomes at 1 uM incubated for 30 mins in presence of NADPH regenerating system by LC/MS/MS analysis; type: ADME, Microsome; details: 0.5 h
[20] = Metabolic stability in pooled rat liver microsomes at 1 uM incubated for 30 mins in presence of NADPH regenerating system by LC/MS/MS analysis; type: ADME, Microsome; details: 0.5 h
rhinovirus B14 [21] = experiment: Antiviral activity against Human rhinovirus B14 infected in human H1-HeLa cells assessed as reduction in viral titre at 0.1 uM pretreated for 1 hr followed by viral infection and measured after 6 hrs by time-of-addition assay; type: functional, organism-based
rhinovirus B14 [22] = experiment: Antiviral activity against Human rhinovirus B14 infected in human H1-HeLa cells assessed as reduction in viral replication by measuring viral titre measured 3 days post infection by crystal violet staining based plaque reduction assay; type: functional, organism-based; details: dose 1.1-30 µM, time 3.0 day, DDE = dose-dependent effect
rhinovirus B14 [23] = experiment: Antiviral activity against Human rhinovirus B14 infected in human H1-HeLa cells assessed as reduction in viral titre at early stage at 10 uM pretreated for 1 hr followed by viral infection and measured after 9 hrs by time-of-addition assay; type: functional, organism-based

CYP3A4, sequence (P08684 whole entry): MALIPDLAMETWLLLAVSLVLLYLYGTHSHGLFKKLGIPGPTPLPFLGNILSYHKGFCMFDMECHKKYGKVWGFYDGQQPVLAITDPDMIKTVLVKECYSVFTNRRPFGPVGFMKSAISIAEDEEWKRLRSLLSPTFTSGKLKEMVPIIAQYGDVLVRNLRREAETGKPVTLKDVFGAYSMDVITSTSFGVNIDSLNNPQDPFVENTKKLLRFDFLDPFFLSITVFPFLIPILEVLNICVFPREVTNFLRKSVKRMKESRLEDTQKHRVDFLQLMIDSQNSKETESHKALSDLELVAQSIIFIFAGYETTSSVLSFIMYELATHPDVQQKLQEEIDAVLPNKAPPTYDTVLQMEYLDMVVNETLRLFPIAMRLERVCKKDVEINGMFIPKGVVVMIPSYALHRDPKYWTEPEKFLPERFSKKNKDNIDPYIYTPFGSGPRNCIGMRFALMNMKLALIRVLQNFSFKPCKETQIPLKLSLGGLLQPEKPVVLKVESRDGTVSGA
CYP2D6, sequence (P10635 whole entry): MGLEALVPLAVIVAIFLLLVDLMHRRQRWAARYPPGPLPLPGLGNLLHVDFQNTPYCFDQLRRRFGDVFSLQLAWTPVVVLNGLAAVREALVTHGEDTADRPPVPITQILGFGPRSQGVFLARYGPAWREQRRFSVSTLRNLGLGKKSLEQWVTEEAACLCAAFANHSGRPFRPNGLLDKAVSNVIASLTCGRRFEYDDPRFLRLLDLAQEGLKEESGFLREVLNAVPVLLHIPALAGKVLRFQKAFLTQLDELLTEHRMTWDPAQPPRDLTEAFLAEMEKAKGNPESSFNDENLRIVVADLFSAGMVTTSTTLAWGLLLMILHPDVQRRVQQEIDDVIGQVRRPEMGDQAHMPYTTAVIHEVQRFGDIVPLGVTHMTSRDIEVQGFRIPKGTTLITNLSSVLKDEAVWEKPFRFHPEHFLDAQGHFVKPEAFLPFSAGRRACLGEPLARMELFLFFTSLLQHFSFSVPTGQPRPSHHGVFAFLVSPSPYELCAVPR
CYP2C9, sequence (P11712 whole entry): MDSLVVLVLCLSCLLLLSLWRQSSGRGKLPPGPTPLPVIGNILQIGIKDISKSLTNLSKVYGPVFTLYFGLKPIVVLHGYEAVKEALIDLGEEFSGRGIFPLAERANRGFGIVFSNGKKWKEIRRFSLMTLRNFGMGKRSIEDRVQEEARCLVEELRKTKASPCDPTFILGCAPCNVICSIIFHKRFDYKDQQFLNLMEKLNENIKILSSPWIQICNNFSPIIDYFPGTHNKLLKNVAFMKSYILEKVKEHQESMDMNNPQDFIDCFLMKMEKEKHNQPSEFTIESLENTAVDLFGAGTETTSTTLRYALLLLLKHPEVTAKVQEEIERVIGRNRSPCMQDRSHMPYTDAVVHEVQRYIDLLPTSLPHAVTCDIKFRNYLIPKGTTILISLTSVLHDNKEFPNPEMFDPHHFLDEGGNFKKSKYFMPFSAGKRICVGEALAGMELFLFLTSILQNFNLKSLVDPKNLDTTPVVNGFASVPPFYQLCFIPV
CYP2C19, sequence (P33261 whole entry): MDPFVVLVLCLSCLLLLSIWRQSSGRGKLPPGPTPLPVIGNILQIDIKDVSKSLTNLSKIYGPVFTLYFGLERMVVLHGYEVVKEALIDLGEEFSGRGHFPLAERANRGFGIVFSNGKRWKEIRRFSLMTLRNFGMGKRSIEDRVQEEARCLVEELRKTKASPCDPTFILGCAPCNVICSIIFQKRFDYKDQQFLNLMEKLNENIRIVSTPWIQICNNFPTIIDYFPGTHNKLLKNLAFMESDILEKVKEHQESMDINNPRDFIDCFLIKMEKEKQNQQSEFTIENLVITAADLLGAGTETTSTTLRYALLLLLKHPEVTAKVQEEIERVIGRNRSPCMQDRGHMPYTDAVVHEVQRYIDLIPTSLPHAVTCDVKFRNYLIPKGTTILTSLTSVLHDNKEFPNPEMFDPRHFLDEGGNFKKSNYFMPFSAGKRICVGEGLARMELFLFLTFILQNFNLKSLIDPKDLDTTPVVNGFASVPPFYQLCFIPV

## CC(C)CCn1c(=O)c2c3c(sc2n2cnnc12)CC(C(C)(C)C)CC3 (stereo not given)
Rhinovirus B14 [1]; Rhinovirus B, H1-HeLa, 72 h
  EC50: > 100 µM
Rhinovirus A21; Rhinovirus A, H1-HeLa, 72 h
  EC50: > 100 µM
[2]
  EC50: > 100 µM
[3]
  CC50: > 100 µM

## CCCCCCn1c(=O)c2c3c(sc2n2cnnc12)CC(C(C)(C)C)CC3 (stereo not given)
Rhinovirus B14 [1]; Rhinovirus B, H1-HeLa, 72 h
  EC50: > 100 µM
Rhinovirus A21; Rhinovirus A, H1-HeLa, 72 h
  EC50: > 100 µM
[2]
  EC50: > 100 µM
[3]
  CC50: > 100 µM

## CCCn1c(=O)c2c3c(sc2n2cnnc12)CC(C(C)(C)C)CC3 (stereo in doubt) [listing 1 of 2 here]
Rhinovirus B14 [1]; h1-hela
  EC50: 1.8 µM
Rhinovirus A21; h1-hela
  EC50: 2 µM
[2]
  EC50: 1.6 µM
[3]
  CC50: 77.1 µM
[4]
  Ratio CC50/EC50: 37.2
[5]
  Ratio CC50/EC50: 42.2
[6]
  selectivity ratio: 33.2
Rhinovirus A1B
  EC50: 1.9 µM
Rhinovirus A2
  EC50: 1.9 µM
Rhinovirus A16
  EC50: 1.9 µM
Rhinovirus A [7]
  EC50: 1.5 µM
Rhinovirus A [8]
  EC50: 1.9 µM
Rhinovirus B [9]
  EC50: 1.6 µM
[10]
  EC50: 1.6 µM
Rhinovirus B86
  EC50: 1.5 µM
Rhinovirus B [11]
  EC50: 1.7 µM
Coxsackievirus B1
  EC50: 19.8 µM
Poliovirus 3
  EC50: 1.67 µM
[12]
  IC50: 1.7 µM
[13]
  CC50: > 30 µM
CYP1A2
  inhibition at 20 min, 10 µM: 7.46%
CYP2C19
  inhibition at 20 min, 10 µM: 7.19%
CYP3A4
  inhibition at 20 min, 10 µM: 3.24%
CYP2D6
  inhibition at 20 min, 10 µM: 1.26%
CYP2C9
  inhibition at 20 min, 10 µM: 11.9%
[14]
  Tmax: 3.5 h
[15]
  Cmax: 20 ng/mL
[16]
  half-life: 8.89 h
[17]
  AUC(0-t): 180 ng·h/mL
[18]
  AUC(0-inf): 200 ng·h/mL
[19]
  Stability: Stable
[20]
  Stability: Stable

## CCOC(=O)/C=C/[C@H](CC1CCNC1=O)NC(=O)[C@@H](CC(=O)[C@@H](NC(=O)c1cc(C)on1)C(C)C)Cc1ccc(F)cc1 (stereo not given in full)
Rhinovirus B14 [21]
  Activity: Active

## CCCn1c(=O)c2c3c(sc2n2cnnc12)CC(C(C)(C)C)CC3 (stereo in doubt) [listing 2 of 2 here]
Rhinovirus B14 [22]
  Activity: Dde
Rhinovirus B14 [23]
  Activity: Active

## CC(C)(C)C1CCc2c(sc3c2c(=O)n(-c2ccccc2)c2nncn32)C1 (stereo not given)
Rhinovirus B14 [1]; Rhinovirus B, H1-HeLa, 72 h
  EC50: 5 µM
Rhinovirus A21; Rhinovirus A, H1-HeLa, 72 h
  EC50: 5.1 µM
[2]
  EC50: 2.3 µM
[3]
  CC50: 18.7 µM
[4]
  selectivity ratio: 3.7
[5]
  selectivity ratio: 3.6
[6]
  selectivity ratio: 8.1

## CCCCn1c(=O)c2c3c(sc2n2cnnc12)CC(C(C)(C)C)CC3 (stereo not given)
Rhinovirus B14 [1]; Rhinovirus B, H1-HeLa, 72 h
  EC50: 2.2 µM
Rhinovirus A21; Rhinovirus A, H1-HeLa, 72 h
  EC50: > 100 µM
[2]
  EC50: 2 µM
[3]
  CC50: > 100 µM
[4]
  selectivity ratio: > 45.4
[6]
  selectivity ratio: > 50
Coxsackievirus B1
  EC50: > 22.9 µM
Poliovirus 3
  EC50: 2.55 µM

## CC(C)(C)C1CCc2c(sc3c2c(=O)n(C2CC2)c2nncn32)C1 (stereo not given)
Rhinovirus B14 [1]; Rhinovirus B, H1-HeLa, 72 h
  EC50: 15 µM
Rhinovirus A21; Rhinovirus A, H1-HeLa, 72 h
  EC50: 7.7 µM
[2]
  EC50: 4.3 µM
[3]
  CC50: 35.5 µM
[4]
  selectivity ratio: 2.3
[5]
  selectivity ratio: 4.6
[6]
  selectivity ratio: 8.2
